The values below are quoted from earlier work in patent US8039024B2, “Device and composition for the delivery of a preservative-free balsamic cream” (APR Applied Pharma Research, S.A., priority 2008, dated 2011).

For this data set the following is noted: sprayed directly onto the nasal mucosa of dogs and humans.

On to `CC12CCC(CC1=O)C2(C)C` (centres unmarked) [camphor, Camphor], for which the decongestant action entry is on record as “no decongestant action”.
Consider `CC1CCC(C(C)C)C(O)C1` (centres unmarked) [menthol, Menthol], for which the decongestant action entry is reported as “no decongestant action”.
